# Patent US5807855A, “1-piperazino-1,2-dihydroindene derivatives” (priority 1992, dated 1998)
# pIC50: −log10 of the molar value. “Also recorded” adds a separate entry of the source. Read-outs that look alike come from different tables or passages of the source.
# What was measured:
# [1] = target: T1, 5-HT2 receptors (Rattus norvegicus, UniProt P14842); assay: Inhibition of 3H-ketanserin binding to 5-HT2 receptors in membranes from rat cortex; settings: Receptor Binding, IC50, 5-HT2 3H-Ket
# T1 construct: 5-HT2 receptors in membranes from rat cortex; from tissue; host or cells: membranes from rat cortex
# Procedure: Receptor binding studies.
# 5-HT2 receptors. Inhibition of ^3 H-ketanserin binding to 5-HT2 receptors in membranes from rat cortex was determined as described by Hyttel, J. Acta. Pharmacol. Toxicol.
# [2] = target: T2, DA D1 receptor (Rattus norvegicus, UniProt P18901); assay: biochemical; type: binding; settings: IC50, D1 3H-SCH
# [3] = target: T3, DA D2 receptors (Rattus norvegicus, UniProt P61169); assay: Inhibition of 3H-spiperone binding to DA D2 receptors in rat striatal membranes; settings: IC50, D2 3H-Spi
# T3 construct: DA D2 receptors in rat striatal membranes; from tissue; host or cells: rat striatal membranes
# [4] = tested on: DA uptake; assay: Inhibition of DA uptake in vitro; type: biochemical
# Procedure: Inhibition of DA Uptake in Vitro was determined as described by K. P. B.o slashed.ges.o slashed., J. Med. Chem. 1983, 26, 935-947.
# [5] = target: T2, DA D1 receptor; assay: Antagonism of SK&F 38393-induced circling behavior in rats with unilateral 6-OHDA lesions; type: in vivo; parameters: circling behavior in rats with unilateral 6-OHDA lesions; from tissue; host or cells: living rats with unilateral 6-OHDA lesions; settings: 2 h
# Procedure: Antagonism of SK&F 38393-induced circling behavior in rats with unilateral 6-OHDA lesions.
# This test is a test for the DA D1 receptor antagonistic effect in vivo.
# The experiments were performed as described by Arnt, J. and Hyttel, J. J. Neural. Transm. 1986, 67, 225-240. The experiments were done 2-9 months after lesioning when stable contralateral circling response to 2,3,4,5-tetrahydro-7,8-dihydroxy-1-phenyl-1H-3-benzazepine, hydrochloride (SK&F 38393) (4.3 μmol/kg=1.4 mg/kg) were obtained. The test compounds were injected 2 h before administration of SK&F 38393. Antagonistic effect were calculated as percent inhibition of control responses for each rat. Four to eight animals were used per dose.
# [6] = Cataleptogenic effect in rats; settings: rat, in vivo, maximum effect 1-6 h after administration, read-out: ED50 in the catalepsy test
# Procedure: Cataleptogenic effect in rats.
# Catalepsy was measured every hour 1-6 h after test drug administration on a vertical wire grid and defined as being present after at least 15-simmobility. The maximum effect between 1-6 h after administration was reported. A total of 8-12 animals were used per dose.
# [7] = tested on: DA D1 receptor; settings: 3H-piflutixol; D2 by 3H-spiperone; Drug. Dev. Res. 1986, 7, 35-47; cited from earlier work
# [8] = tested on: D1; settings: 3H-SCH 23390; Drug. Dev. Res. 1988, 15, 389-404; cited from earlier work
# [9] = tested on: DA uptake; settings: cited from earlier work
# [10] = cited from earlier work; for extrapyramidal side effects (in words): at higher D2 occupancies needed to control psychosis
# [11] = Psychopharmacology 1985, 86, 303-305; cited from earlier work
# [12] = tested on: 5-HT2; settings: cited from earlier work
# [13] = rat striatal membranes, 3H-SCH 23390, read-out: Receptor Binding
# [14] = rat striatal membranes, 3H-spiperone, read-out: Receptor Binding
# T3 sequence (P61169 whole entry): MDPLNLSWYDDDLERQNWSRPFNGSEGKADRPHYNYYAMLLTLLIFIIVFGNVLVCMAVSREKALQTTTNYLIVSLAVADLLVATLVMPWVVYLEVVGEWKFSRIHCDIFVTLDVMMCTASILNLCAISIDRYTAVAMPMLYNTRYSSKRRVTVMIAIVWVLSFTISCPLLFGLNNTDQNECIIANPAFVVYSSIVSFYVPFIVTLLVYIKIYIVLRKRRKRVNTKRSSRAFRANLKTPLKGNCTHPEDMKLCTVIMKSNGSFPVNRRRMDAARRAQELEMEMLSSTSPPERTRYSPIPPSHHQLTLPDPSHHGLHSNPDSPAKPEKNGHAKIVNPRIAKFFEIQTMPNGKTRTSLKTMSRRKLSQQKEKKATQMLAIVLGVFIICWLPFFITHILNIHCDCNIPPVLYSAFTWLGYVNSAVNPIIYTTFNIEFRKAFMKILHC
# T2 sequence (P18901 whole entry): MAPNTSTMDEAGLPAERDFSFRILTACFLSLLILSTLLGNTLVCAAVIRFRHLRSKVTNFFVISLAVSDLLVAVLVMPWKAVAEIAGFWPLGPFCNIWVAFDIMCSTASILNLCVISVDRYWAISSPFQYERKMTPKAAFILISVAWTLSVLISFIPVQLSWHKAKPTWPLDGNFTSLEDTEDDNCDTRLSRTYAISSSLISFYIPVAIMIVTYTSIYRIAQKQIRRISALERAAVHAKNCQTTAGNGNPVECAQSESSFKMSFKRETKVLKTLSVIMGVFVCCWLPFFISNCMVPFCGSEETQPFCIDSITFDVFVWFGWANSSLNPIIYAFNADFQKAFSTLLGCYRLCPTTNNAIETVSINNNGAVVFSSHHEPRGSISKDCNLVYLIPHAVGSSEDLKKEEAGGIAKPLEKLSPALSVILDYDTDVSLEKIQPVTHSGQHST
# T1 sequence (P14842 whole entry): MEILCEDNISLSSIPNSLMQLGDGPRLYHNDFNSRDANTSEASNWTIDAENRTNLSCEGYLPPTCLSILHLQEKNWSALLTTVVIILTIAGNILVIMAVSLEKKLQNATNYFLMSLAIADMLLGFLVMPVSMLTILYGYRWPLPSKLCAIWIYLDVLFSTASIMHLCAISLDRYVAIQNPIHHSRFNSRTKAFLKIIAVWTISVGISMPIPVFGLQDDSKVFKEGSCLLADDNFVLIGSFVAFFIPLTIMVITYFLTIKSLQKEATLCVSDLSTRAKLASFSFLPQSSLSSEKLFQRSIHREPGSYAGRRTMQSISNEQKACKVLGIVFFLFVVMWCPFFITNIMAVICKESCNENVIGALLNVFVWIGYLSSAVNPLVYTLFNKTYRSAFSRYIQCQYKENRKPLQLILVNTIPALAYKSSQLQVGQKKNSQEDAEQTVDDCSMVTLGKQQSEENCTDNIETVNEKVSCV
smiles,measurement,setting,value
"CN1CCN([C@@H]2C[C@@H](c3ccccc3)c3ccc(Cl)cc32)CC1(C)C (racemic) [Compound 10, (±)-Trans-4-[6-chloro-3-phenyl-2,3-dihydro-1H-inden-1-yl]-1,2,2-trimethylpiperazine]",pIC50,[1],8.49
same,pIC50,[2]; [13],8.80
same,pIC50,[3]; Receptor Binding,7.70
same,pIC50,[4],7.82
"CN1CCN([C@@H]2C[C@@H](c3ccc(F)cc3)c3ccc(F)cc32)CC1(C)C (racemic) [Compound 38, (±)-Trans-4-[6-fluoro-3-(4-fluorophenyl)-2,3-dihydro-1H-inden-1-yl]-1,2,2-trimethyl piperazine]",pIC50,[1],8.44
same,pIC50,[2]; Receptor Binding,9.06
same,pIC50,[3]; [14],7.96
same,ED50,[5],0.5 µmol/kg
same,pIC50,[4],8.05
same,ED50,[6],> 68 µmol/kg
OCCN1CCN([C@@H]2C[C@@H](c3ccc(F)cc3)c3ccc(C(F)(F)F)cc32)CC1 (racemic) [Tefludazine],DA D1 receptor affinity (in words),[7],substantially lower than the D2 affinity
"CN1CCN([C@@H]2C[C@@H](c3ccc(F)cc3)c3ccc(Cl)cc32)CC1(C)C (single isomer, unassigned) [+2, (+) Trans-4-[6-chloro-3-(4-fluorophenyl)-2,3-dihydro-1H-inden-1-yl]-1,2,2-trimethylpiperazine]",pIC50,[1],5.70
same,pIC50,[4],7.80
"Fc1ccc(C2CC(N3CCN4CCCCC4C3)c3cc(F)ccc32)cc1 (stereo not shown) [Compound 33, 2-[6-fluoro-3-(4-fluorophenyl)-2,3-dihydro-1H-inden-1-yl]-octahydropyrido[1,2-a]-pyrazine]",pIC50,[1],7.55
same,pIC50,[2]; [13],8.24
same,pIC50,[3]; [14],6.49
"O=C1NCCN1CCN1CCN([C@@H]2C[C@@H](c3ccc(F)cc3)c3ccccc32)CC1 [Irindalone, reference compound]",pIC50,[2]; read-out: Receptor Binding,6.05
same,D1 affinity (in words),[8],even lower than the D2 affinity
COC(=O)[C@H]1[C@@H](OC(=O)c2ccccc2)C[C@@H]2CC[C@H]1N2C [cocaine],DA uptake inhibition (in words),[9],inhibitor of DA uptake
O=C(CCCN1CCC(O)(c2ccc(Cl)cc2)CC1)c1ccc(F)cc1 [haloperidol],extrapyramidal side effects (in words),[10],accompanied by extrapyramidal side effects
OCCN1CCN(CCCN2c3ccccc3Sc3ccc(Cl)cc32)CC1 [perphenazine],extrapyramidal side effects (in words),[10],accompanied by extrapyramidal side effects
Cc1nc2sccn2c(=O)c1CCN1CCC(=C(c2ccc(F)cc2)c2ccc(F)cc2)CC1 [ritanserin],effect in animal test (in words),[11],exert effects in an animal test reminiscent of anxiolytic activity
same,5-HT2 antagonism (in words),[12],selective 5-HT2 antagonist
same,clinical effect (in words),[10]; patients,shown to be an antidepressant and to improve depressive symptoms of schizophrenia; also recorded: improve the quality of sleep; also recorded: found to relieve neuroleptic-induced parkinsonism
Cc1nc2n(c(=O)c1CCN1CCC(C(=O)c3ccc(F)cc3)CC1)CCS2 [setoperone],5-HT2 antagonism (in words),[12],5-HT2 and moderate dopamine receptor antagonist
